Test results reported in US8680081B2, “Prophylactic treatment of migraine” (priority 2000, dated 2014).

Legend:
[1] = Prophylactic treatment of migraine by regular administration, patient case reports; type: in vivo, human
Protocol: The method for prophylactic treatment includes regular administration of a therapeutically effective amount of a combination comprising a cyclooxygenase-2 inhibitor and acetylsalicylic acid or active derivative. Administration of the combination including a cyclooxygenase-2 inhibitor may include administration of one or more cyclooxygenase-2 inhibitors.
The combination is administered regularly, meaning that the combination is administered periodically or aperiodically over a period of several days or weeks, in an effort to prevent migraine attacks, and is not merely administered in response or reaction to migraine symptoms. Regular administration may include once-daily administration of each agent, administration on alternate days, or any other periodic or aperiodic schedule that is determined to be effective as a planned course of treatment for preventing migraine.
A patient with an established history of recurrent migraine was treated with a daily oral dose of 25 milligrams of VIOXX (rofecoxib tablets, Merck & Co, Inc., Whitehouse Station, N.J.). […]
A patient with an established history of recurrent migraine was treated with a daily oral dose of 200 milligrams of CELEBREX (celecoxib capsules, G.D. Searle & Co., Chicago, Ill.).
A patient with a well-established history of recurrent migraine attacks heralded by an aura of dysphasia (i.e., difficulty in finding words) begins taking 25-50 milligrams of rofecoxib at the onset of the dysphasic symptoms. […] Because they have lately suffered more than four migraine attacks per month, on the advice of their physician they continue daily dosing of 12.5-25 milligrams of rofecoxib over time. […]

[2] = Targeted prophylactic treatment of migraine before a time window, trigger or attack, patient case reports; type: in vivo, human
From the text: In another embodiment, the invention provides a method for targeted prophylactic treatment of a migraine condition. The method includes determining a time window or selected time period in which a patient desires to be free from migraine; and administering to the patient, at a time prior to the determined time window, a therapeutically effective amount of a cyclooxygenase-2 inhibitor, either alone or in combination with acetylsalicylic acid or active derivative, to prevent or reduce migraine symptoms during the time window.
Prior to the determined time window, a therapeutically effective amount of a cyclooxygenase-2 inhibitor is administered to the patient. By “prior,” it is meant that the administration is temporally before the determined time window, but sufficiently close in time so that the prophylactic effect of the cyclooxygenase-2 inhibitor is experienced throughout most or all of the determined time window.
A patient with an established history of migraine brought on by glare associated with an ophthalmic operating room microscope was treated with 6 milligrams of IMITREX by injection (Glaxo Wellcome Inc.), and an oral dose of 12.5 to 25 milligrams of VIOXX (Merck & Co, Inc.) the night before a scheduled ophthalmic operation.
(§1) A patient with an established history of migraine brought on by glare associated with repeated use of a slit lamp biomicroscope was treated with an oral dose of 12.5 to 25 milligrams of VIOXX (Merck & Co, Inc.) the night before a scheduled clinic.
as §1, with “Inc.) and 325 milligrams aspirin (over-the-counter aspirin tablets)” for “Inc.)”
(§2) A patient with an established history of migraine brought on by occasional consumption of red wine (as a beverage or in a sauce or dressing) was treated with an oral dose of 12.5 to 25 milligrams of VIOXX (Merck & Co, Inc.) on the same day as such consumption before migraine attack symptoms are evident.
as §2, with “Inc.) and 162.5 milligrams aspirin (over-the-counter aspirin tablets)” for “Inc.)”
(§3) A patient with a well-established history of recurrent migraine attacks learns to recognize their prodromal symptoms of altered mood, irritability, fatigue, and craving for sweets which typically occur 3 to 24 hours prior to the fully developed phase of their migraine. They learn over time that these prodromal symptoms eventually lead to a migraine attack in most cases. Their migraine attacks typically include unusual sensitivity to light and sound, difficulty concentrating, headache, and less commonly, nausea. As soon as they recognize the prodromal symptoms, they take a one-time dose of 25-50 milligrams of rofecoxib, followed by 12.5-25 milligrams of rofecoxib daily.
as §3, with “rofecoxib and 162.5-325 milligrams aspirin,” for “rofecoxib,”, “rofecoxib and 162.5-325 milligrams aspirin” for “rofecoxib”, “daily. […]” for “daily.”

[3] = Example 1, daily oral 25 milligrams VIOXX, treatment period three to four weeks

Row | SMILES | intensity of the symptoms of a subsequent migraine ([1]; Example 4, daily oral 200 milligrams CELEBREX) | migraine symptoms ([1]; Example 4, daily oral 200 milligrams CELEBREX, treatment period ten to fourteen days) | migraine symptoms ([1]; Example 1, daily oral 25 milligrams VIOXX, first week of use) | frequency of migraine attacks [1, 3] | intensity of the symptoms of subsequent migraine attacks [1, 3] | frequency and intensity of the migraine attacks ([1]; Example 12, continued daily 12.5-25 milligrams rofecoxib) | migraine symptoms before, during and after the scheduled clinic ([2]; Example 6, glare-induced migraine, oral 12.5 to 25 milligrams VIOXX the night before) | duration of therapeutic benefit ([2]; Example 8, further daily oral 12.5 to 25 milligrams VIOXX after red wine) | migraine symptoms in the period when symptoms would normally be expected ([2]; Example 8, red wine-induced migraine, oral 12.5 to 25 milligrams VIOXX same day as consumption) | migraine attack symptoms ([2]; Example 10, at prodromal symptoms one-time 25-50 milligrams rofecoxib, then 12.5-25 milligrams daily) | period of benefit with continued daily dosing ([2]; Example 10, continued daily 12.5-25 milligrams rofecoxib) | intensity and length of the migraine attack symptoms ([2]; Example 12, 25-50 milligrams rofecoxib at onset of dysphasic aura)
1 | Cc1ccc(-c2cc(C(F)(F)F)nn2-c2ccc(S(N)(=O)=O)cc2)cc1 [CELEBREX, 4-[5-(4-methylphenyl)-3-(trifluoromethyl)-1H-pyrazol-1-yl]] | reduced intensity | free of migraine symptoms |  |  |  |  |  |  |  |  |  | 
2 | CS(=O)(=O)c1ccc(C2=C(c3ccccc3)C(=O)OC2)cc1 [VIOXX, 4-[4-(methylsulfonyl)phenyl]-3-phenyl-2(5H)-furanone] |  |  | free of migraine symptoms | reduced frequency | reduced intensity | substantial decrease in the frequency and intensity | free of migraine symptoms | extended for several days | either free of, or experienced substantially reduced, migraine symptoms | either free of, or has greatly reduced, migraine attack symptoms | several days (or longer) | reduction in the intensity and length
